Values of other authors, collected in US8686040B2, “Method for treating anal pruritis and other perianal disorders” (RDD Pharma Ltd., priority 2008, dated 2014).

Tests used:
[1] = relative to gabapentin

Compound: CC(C)C[C@H](CN)CC(=O)O [Pregabalin]
- lipid solubility [1]: higher lipid solubility than gabapentin
- time to reach peak concentration after oral ingestion: ≤ 90 min
- absorption when administered orally (oral): greater than 90%
